Results reported in PMC5453931, “Cathelicidin-trypsin inhibitor loop conjugate represents a promising antibiotic candidate with protease stability” (Scientific Reports, 2017).
In brackets after ≈: the same amount, converted by molar mass. Where a SMILES comes first, the peptide text is derived from it. Bridges are numbered along the chain shown (N, C = ends).

Columns and labels:
[1] = test system: E. Coli 08032813; assay: MIC, two-fold broth microdilution; assay type: cell-based; details: Gram-negative; two-fold broth microdilution, MH broth, 37 °C, 18 h; mean of three independent experiments in duplicates
Protocol: (§1) A two-fold broth microdilution method described in our previous paper was used to determine the antimicrobial activities of parental and hybrid peptides. More than 30 strains including Gram-negative bacteria, Gram-positive bacteria and fungi were used in the current assay, in which the standard strains were stored in our lab and the clinical strains were collected from local hospitals. Briefly, bacteria were incubated in Mueller-Hinton broth (MH broth) at 37 °C to exponential phase and diluted to 10^6 CFU/mL. A serial dilution of peptide sample were prepared in 96-well microtiter plates (50 μL) and mixed with equal volume of microbial inoculums (50 μL). The plate was slowly shaken in the microbial incubator, and measured at A595 after incubation at 37 °C for 18 h. The minimal concentrations at which no microbial growth occurred were recorded as MIC (minimal inhibitory concentration) values. The traditional antibiotic ampicillin was used as positive control. The results are shown in an average of the MICs obtained from three independent experiments.

[2] = test system: Staphylococcus epidermidis; assay: MIC, two-fold broth microdilution; assay type: cell-based; details: Gram-positive; two-fold broth microdilution, MH broth, 37 °C, 18 h; mean of three independent experiments in duplicates
Protocol: as §1

[3] = test system: Vibrio Parahaemolyticus; assay: MIC, two-fold broth microdilution; assay type: cell-based; details: Aquatic pathogenic bacteria; two-fold broth microdilution, 37 °C, 18 h; mean of three independent experiments in duplicates
Protocol: as §1

[4] = target: trypsin; assay: Trypsin inhibition assay (NBLAN hydrolysis, Dixon method); assay type: biochemical; details: 50 mM Tris–HCl pH 7.8, trypsin 0.1 mg/mL, 5 min pre-incubation at 37 °C, substrate NBLAN 48, 96, 192 μg/mL, 405 nm
Protocol: The inhibition effect on the hydrolysis of synthetic chromogenic substrate by trypsin was assayed in 50 mM Tris–HCl, pH 7.8 buffer at room temperature. The trypsin of final concentration of 0.1 mg/mL and different amounts of the hybrid peptide (final concentrations ranging from 0 to 0.16 μg/mL) were pre-incubated for 5 min at 37 °C. N-α-Benzoyl-DL-arginine p-nitroanilide hydrochloride (NBLAN) was used as a substrate for trypsin. The reaction was initiated by the addition of NBLAN with a final concentration of 48, 96 and 192 μg/mL, respectively. The formation of yellow product, p-nitroaniline was monitored continuously at 405 nm[61]. The inhibition constant Ki of the hybrid peptides were determined according to the method of Dixon (1953)[62].

[5] = test system: E. coli 08040726; assay: MIC, two-fold broth microdilution (second listing of the strain number); assay type: cell-based; details: Gram-negative, MH broth, 37 °C, 18 h, mean of three independent experiments in duplicates
Protocol: as §1

[6] = test system: 08030209; assay: microbe, parasite or virus in culture; assay type: cell-based, Arcyria cinerea; details: Fungi; two-fold broth microdilution, 37 °C, 18 h; mean of three independent experiments in duplicates
Protocol: as §1

[7] = test system: E. Coli 08032823; assay: microbe, parasite or virus in culture; assay type: cell-based; details: Gram-negative; two-fold broth microdilution, MH broth, 37 °C, 18 h; mean of three independent experiments in duplicates
Protocol: as §1

[8] = test system: Candida albicans 08030102; assay: microbe, parasite or virus in culture; assay type: cell-based; details: Fungi; two-fold broth microdilution, 37 °C, 18 h; mean of three independent experiments in duplicates
Protocol: as §1

[9] = test system: Escherichia coli ATCC25922; assay: microbe, parasite or virus in culture; assay type: cell-based; details: Gram-negative; two-fold broth microdilution, MH broth, 37 °C, 18 h; mean of three independent experiments in duplicates
Protocol: as §1

[10] = test system: S. Aureus 08032706; assay: microbe, parasite or virus in culture; assay type: cell-based; details: Gram-positive; two-fold broth microdilution, MH broth, 37 °C, 18 h; mean of three independent experiments in duplicates
Protocol: as §1

[11] = test system: Aeromonas sobria; assay: microbe, parasite or virus in culture; assay type: cell-based; details: Aquatic pathogenic bacteria; two-fold broth microdilution, 37 °C, 18 h; mean of three independent experiments in duplicates
Protocol: as §1

[12] = test system: Candida glabrata 08A802; assay: microbe, parasite or virus in culture; assay type: cell-based; details: Fungi; two-fold broth microdilution, 37 °C, 18 h; mean of three independent experiments in duplicates
Protocol: as §1

[13] = test system: Shigella dysenteriae 0804203; assay: microbe, parasite or virus in culture; assay type: cell-based; details: Gram-negative; two-fold broth microdilution, MH broth, 37 °C, 18 h; mean of three independent experiments in duplicates
Protocol: as §1

[14] = test system: P. Aeruginosa 08021015; assay: microbe, parasite or virus in culture; assay type: cell-based; details: Gram-negative; two-fold broth microdilution, MH broth, 37 °C, 18 h; mean of three independent experiments in duplicates
Protocol: as §1

[15] = test system: Aeromonas veronii; assay: microbe, parasite or virus in culture; assay type: cell-based; details: Aquatic pathogenic bacteria; two-fold broth microdilution, 37 °C, 18 h; mean of three independent experiments in duplicates
Protocol: as §1

[16] = test system: Vibrio cholerae; assay: microbe, parasite or virus in culture; assay type: cell-based; details: Aquatic pathogenic bacteria; two-fold broth microdilution, 37 °C, 18 h; mean of three independent experiments in duplicates
Protocol: as §1

[17] = test system: Bacillus subtilis 08042313; assay: microbe, parasite or virus in culture; assay type: cell-based; details: Gram-positive; two-fold broth microdilution, MH broth, 37 °C, 18 h; mean of three independent experiments in duplicates
Protocol: as §1

[18] = test system: Vibrio brasiiensis; assay: microbe, parasite or virus in culture; assay type: cell-based; details: Aquatic pathogenic bacteria; two-fold broth microdilution, 37 °C, 18 h; mean of three independent experiments in duplicates
Protocol: as §1

[19] = test system: K. Pneumoniae 08031012; assay: microbe, parasite or virus in culture; assay type: cell-based; details: Gram-negative; two-fold broth microdilution, MH broth, 37 °C, 18 h; mean of three independent experiments in duplicates
Protocol: as §1

[20] = test system: Enterococcus faecium 08052315; assay: microbe, parasite or virus in culture; assay type: cell-based; details: Gram-positive; two-fold broth microdilution, MH broth, 37 °C, 18 h; mean of three independent experiments in duplicates
Protocol: as §1

[21] = test system: S. Aureus 08032810; assay: microbe, parasite or virus in culture; assay type: cell-based; details: Gram-positive; two-fold broth microdilution, MH broth, 37 °C, 18 h; mean of three independent experiments in duplicates
Protocol: as §1

[22] = test system: K. Pneumoniae 08040202; assay: microbe, parasite or virus in culture; assay type: cell-based; details: Gram-negative; two-fold broth microdilution, MH broth, 37 °C, 18 h; mean of three independent experiments in duplicates
Protocol: as §1

Compound: CC[C@H](C)[C@@H]1NC(=O)[C@H](CO)NC(=O)[C@H](CCCCN)NC(=O)[C@H]([C@@H](C)O)NC(=O)[C@H](Cc2c[nH]c3ccccc23)NC(=O)[C@@H](N)CSSC[C@@H](C(=O)N[C@@H](CCCCN)C(=O)N[C@@H](Cc2ccccc2)C(=O)N[C@@H](Cc2ccccc2)C(=O)N[C@@H](CCCCN)C(=O)N[C@@H](CCCNC(=N)N)C(=O)N[C@@H](CC(C)C)C(=O)N[C@@H](CC(C)C)C(=O)N[C@@H](CCCCN)C(=O)N[C@@H](CO)C(=O)N[C@H](C(=O)N[C@@H](CCCNC(=N)N)C(=O)N[C@@H](CCCNC(=N)N)C(=O)N[C@@H](C)C(=O)N[C@H](C(=O)N[C@@H](CCCCN)C(=O)N[C@@H](CCCCN)C(=O)N[C@@H](Cc2ccccc2)C(N)=O)C(C)C)C(C)C)NC(=O)[C@@H]2CCCN2C(=O)[C@H](CCCCN)NC(=O)[C@@H]2CCCN2C(=O)[C@@H]2CCCN2C1=O [TIH3] (H-CWTKSIPPKPCKFFKRLLKSVRRAVKKF-NH2; disulfide 1-11)
- MIC E. Coli 08032813 [1]: — (no detectable activity in MIC assay in dose of 200 µg/mL or in trypsin inhibition assay at concentration of 160 μg/mL)
- MIC Staphylococcus epidermidis [2]: — (no detectable activity in MIC assay in dose of 200 µg/mL or in trypsin inhibition assay at concentration of 160 μg/mL)
- MIC Vibrio Parahaemolyticus [3]: 37.5 µg/mL (≈ 11.1 µM)
- Ki [4]: 7.5 µM
- MIC E. Coli 08040726 (second line with this strain number) [5]: — (no detectable activity in MIC assay in dose of 200 µg/mL or in trypsin inhibition assay at concentration of 160 μg/mL)
- MIC Arcyria cinerea 08030209 [6]: — (no detectable activity in MIC assay in dose of 200 µg/mL or in trypsin inhibition assay at concentration of 160 μg/mL)
- MIC E. Coli 08032823 [7]: — (no detectable activity in MIC assay in dose of 200 µg/mL or in trypsin inhibition assay at concentration of 160 μg/mL)
- MIC Candida albicans 08030102 [8]: — (no detectable activity in MIC assay in dose of 200 µg/mL or in trypsin inhibition assay at concentration of 160 μg/mL)
- MIC Escherichia coli ATCC25922 [9]: — (no detectable activity in MIC assay in dose of 200 µg/mL or in trypsin inhibition assay at concentration of 160 μg/mL)
- MIC S. Aureus 08032706 [10]: — (no detectable activity in MIC assay in dose of 200 µg/mL or in trypsin inhibition assay at concentration of 160 μg/mL)
- MIC Aeromonas sobria [11]: — (no detectable activity in MIC assay in dose of 200 µg/mL or in trypsin inhibition assay at concentration of 160 μg/mL)
- MIC Candida glabrata 08A802 [12]: — (no detectable activity in MIC assay in dose of 200 µg/mL or in trypsin inhibition assay at concentration of 160 μg/mL)
- MIC Shigella dysenteriae 0804203 [13]: — (no detectable activity in MIC assay in dose of 200 µg/mL or in trypsin inhibition assay at concentration of 160 μg/mL)
- MIC P. Aeruginosa 08021015 [14]: — (no detectable activity in MIC assay in dose of 200 µg/mL or in trypsin inhibition assay at concentration of 160 μg/mL)
- MIC Aeromonas veronii [15]: — (no detectable activity in MIC assay in dose of 200 µg/mL or in trypsin inhibition assay at concentration of 160 μg/mL)
- MIC Vibrio cholerae [16]: — (no detectable activity in MIC assay in dose of 200 µg/mL or in trypsin inhibition assay at concentration of 160 μg/mL)
- MIC Bacillus subtilis 08042313 [17]: — (no detectable activity in MIC assay in dose of 200 µg/mL or in trypsin inhibition assay at concentration of 160 μg/mL)
- MIC Vibrio brasiiensis [18]: — (no detectable activity in MIC assay in dose of 200 µg/mL or in trypsin inhibition assay at concentration of 160 μg/mL)
- MIC K. Pneumoniae 08031012 [19]: — (no detectable activity in MIC assay in dose of 200 µg/mL or in trypsin inhibition assay at concentration of 160 μg/mL)
- MIC Enterococcus faecium 08052315 [20]: — (no detectable activity in MIC assay in dose of 200 µg/mL or in trypsin inhibition assay at concentration of 160 μg/mL)
- MIC S. Aureus 08032810 [21]: — (no detectable activity in MIC assay in dose of 200 µg/mL or in trypsin inhibition assay at concentration of 160 μg/mL)
- MIC K. Pneumoniae 08040202 [22]: — (no detectable activity in MIC assay in dose of 200 µg/mL or in trypsin inhibition assay at concentration of 160 μg/mL)
